Measurements from US10426773B2, “Systems pharmacology for treating ocular disorders” (Case Western Reserve Univeristy, priority 2011, dated 2019).
Entries after “also recorded” stand apart in the source; their conditions may differ. Where a name gives a salt, the structure may show the parent alone.

What was measured:
[1] = tested on: Abca4−/−Rdh8−/− mice; experiment: Bright light-induced retinal degeneration in Abca4−/−Rdh8−/− mice, OCT imaging of retinal structure; format: in vivo, mouse; conditions: for retinal protection at full individual dose: BRM 1, MTP 10, TAM 2.5 mg/kg bw individually; for Percent of mice with: subeffective doses BRM 0.1, MTP 1, TAM 0.05, DOX 1 mg/kg bw, OCT 7 days; for light-exposed mice with complete retinal protection: lower doses BRM 0.1, MTP 1, TAM 0.05 mg/kg bw, alone or all three combined; for retinal / photoreceptor morphology by OCT imaging: pretreatment before light 10,000 lux 30 min, OCT 7 days after light exposure
[2] = tested on: Abca4−/−Rdh8−/− mice; experiment: Bright light-induced retinal degeneration in Abca4−/−Rdh8−/− mice, SLO autofluorescence imaging; format: in vivo, mouse; conditions: pretreatment before light 10,000 lux 30 min; SLO 8-9 days after light exposure
Description: SLO (Heidelberg Engineering, Heidelberg, Germany) was carried out for whole fundus imaging of mouse retinas. Mice were anesthetized by intraperitoneal injection of anesthetic cocktail indicated above, which was followed by pupil dilation using 1% tropicamide prior to SLO imaging under autofluorescence mode.
SLO (Heidelberg Engineering) was carried out for in vivo whole fundus imaging of mouse retinas. […] Numbers of autofluorescent spots were counted and subjected to statistical analyses as described below.
SLO (Heidelberg Engineering) was carried out for whole fundus imaging of mouse retinas in vivo. Mice were anesthetized, and their pupils were dilated as described above. SLO images were then acquired in the autofluorescence mode.

[3] = molecular target: T1, Dopamine D1 receptor (D1R) (Homo sapiens, UniProt P21728); experiment: BRET assay for G protein activation in live cells, D1R-Gs; format: cell-based; conditions: for antagonistic activity on D1R (inhibition of BRET signal): preincubation with ligand, then 1 μM dopamine
T1 construct: host or cells: HEK293T/17
T1 sequence (P21728 whole entry): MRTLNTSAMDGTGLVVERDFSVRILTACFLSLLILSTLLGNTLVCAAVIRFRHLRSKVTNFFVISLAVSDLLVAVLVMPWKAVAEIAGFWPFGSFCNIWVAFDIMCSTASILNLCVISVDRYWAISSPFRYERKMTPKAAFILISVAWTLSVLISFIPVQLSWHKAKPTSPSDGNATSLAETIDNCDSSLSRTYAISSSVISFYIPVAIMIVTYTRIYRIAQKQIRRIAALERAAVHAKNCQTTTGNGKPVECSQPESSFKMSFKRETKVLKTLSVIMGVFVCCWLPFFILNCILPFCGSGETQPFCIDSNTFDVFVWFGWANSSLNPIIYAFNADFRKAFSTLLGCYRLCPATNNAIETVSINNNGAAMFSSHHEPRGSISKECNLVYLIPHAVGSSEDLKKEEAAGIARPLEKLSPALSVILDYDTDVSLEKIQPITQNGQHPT
Description: (§1) FIGS. 35(A-C) illustrate characterizing the activity of BRM, MTP, DOX, and TAM on dopamine and adrenaline receptors (A) Schematic representation of the BRET assay used to evaluate actions of drugs on selected GPCRs. […] The free Venus-Gβγ then interacts with the Gβγ-effector mimetic masGRK3ct-Nluc to produce the BRET signal. GDP, guanosine diphosphate; GRK, G protein-coupled receptor kinase; Nluc, nanoluciferase. (B) Left: Representative BRET signal traces recorded upon activation of D4R with indicated drugs in cells expressing Gαo and Venus-Gβγ, illustrating the agonism assay. Right: Representative traces of D2R responses to 1 μM dopamine in the absence (control) or presence of indicated drugs, illustrating antagonism assay. Note that, in the antagonism assay shown, the black trace overlaps with the red trace and therefore is not visible. (C) Top: Quantification of agonistic activity of ligands on D2R, D4R, D1R, and ADRA1A. D2R-GO, D4R-GO, D1R-Gs, and ADRA1A-Gq signaling were reconstituted in HEK293T/17 cells by transient transfection separately. Maximum amplitudes induced by dopamine (DA; 100 μM), noradrenaline (NA; 100 μM), BRM (25 μM), MTP (100 μM), DOX (50 μM), and TAM (100 μM) were plotted as bar graphs. […] The activity is plotted as percent inhibition. Data are means±SD. Results are representative of two independent experiments each performed with 12 replicates.
(§2) Dopamine D1, dopamine D4, and α1A-adrenergic receptors were purchased from cDNA Resource Center (Bloomsburg University, Bloomsburg, Pa.). Plasmid encoding the Flag-tagged, long isoform of the D2 dopamine receptor was a gift from A. Kovoor (University of Rhode Island). pCMV5 plasmids encoding GαoA were gifts from H. Itoh (Nara Institute of Science and Technology, Japan). Plasmids encoding Venus 156-239-Gβ1 and Venus 1-155-Gγ2 were gifts from N. Lambert (Georgia Regents University). Plasmids encoding RGS9-2, Gβ5S, R7BP, and masGRK3ct-Nluc were previously described.
(§3) BRET experiments were performed as previously reported with slight modifications. […] BRET measurements were performed using a microplate reader (POLARstar Omega, BMG Labtech) equipped with two emission photomultiplier tubes. […] The BRET signal is determined by calculating the ratio of the light emitted by Gβ1γ2-Venus (535 nm) over the light emitted by masGRK3ct-Nluc (475 nm). The average baseline value recorded before agonist stimulation was subtracted from BRET signal values, and the resulting difference (ABRET ratio) was obtained.
(§4) We used a real-time kinetic assay in which G protein activation by GPCRs is quantified by monitoring changes in the bioluminescence resonance energy transfer (BRET) signal between Venus-tagged Gβγ and its luciferase-tagged reporter in living cells (FIG. 35A). […]

[4] = molecular target: T2, α1A-adrenergic receptor (ADRA1A) (Homo sapiens, UniProt P35348); experiment: BRET assay for G protein activation in live cells, ADRA1A-Gq; format: cell-based; conditions: for antagonistic activity on ADRA1A (inhibition of BRET signal): preincubation with ligand, then 1 μM noradrenaline
T2 construct: host or cells: HEK293T/17
T2 sequence (P35348 1-466): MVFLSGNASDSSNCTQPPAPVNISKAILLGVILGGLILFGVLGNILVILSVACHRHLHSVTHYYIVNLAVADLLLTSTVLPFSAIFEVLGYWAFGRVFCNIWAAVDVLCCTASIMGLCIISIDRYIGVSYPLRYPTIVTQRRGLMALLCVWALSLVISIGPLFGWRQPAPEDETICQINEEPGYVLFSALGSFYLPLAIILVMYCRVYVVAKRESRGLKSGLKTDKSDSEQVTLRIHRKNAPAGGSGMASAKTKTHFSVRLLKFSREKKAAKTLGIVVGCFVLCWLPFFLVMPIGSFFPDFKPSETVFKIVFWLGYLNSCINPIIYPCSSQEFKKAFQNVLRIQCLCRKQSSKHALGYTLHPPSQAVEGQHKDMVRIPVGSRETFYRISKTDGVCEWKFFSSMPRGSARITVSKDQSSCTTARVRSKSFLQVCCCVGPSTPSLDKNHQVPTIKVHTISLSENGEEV
Description: as §1, §2, §3, §4

[5] = tested on: retinal transcriptome of Abca4−/−Rdh8−/− mice; experiment: RNA-seq retinal transcriptome of pretreated, light-exposed Abca4−/−Rdh8−/− mice (differential expression, Pearson, GSEA); format: in vivo, mouse; conditions: for NES, CHEMOKINE SIGNALING gene set / NES, CYTOKINE- RECEPTOR INTERACTIO gene set / NES, P53 gene set / NES, TOLL-LIKE SIGNALING gene set / NES, APOPTOSIS gene set: GSEA, vehicle-treated light-exposed retinas against drug-treated; for NES, APOPTOSIS gene set: P in brackets not reported here; for number of light-up-regulated gene sets significantly down-regulated (GSEA): of 44 gene sets up-regulated by light, mono doses BRM 1, MTP 10, TAM 2.5, DOX 10 mg/kg bw
[6] = Table 14 (complete protection, ONL ≥50 μm)
[7] = Table 14 (no protection, ONL ≤20 μm)
[8] = HEK293T/17 cells, BRM 25 μM, MTP 100 μM, DOX 50 μM, TAM 100 μM

SMILES | retinal protection at full individual dose [1] | Percent of mice with [1, 6] | Percent of mice with [1, 7] | light-exposed mice with complete retinal protection [1] | retinal / photoreceptor morphology by OCT imaging [1] | retinal autofluorescence spots by SLO imaging [2] | agonistic activity on D1R (BRET signal) [3, 8] | antagonistic activity on D1R (inhibition of BRET signal) [3] | agonistic activity on ADRA1A (BRET signal) [4, 8] | antagonistic activity on ADRA1A (inhibition of BRET signal) [4] | NES, CHEMOKINE SIGNALING gene set [5] | NES, CYTOKINE- RECEPTOR INTERACTIO gene set [5] | NES, P53 gene set [5] | NES, TOLL-LIKE SIGNALING gene set [5] | NES, APOPTOSIS gene set [5] | number of light-up-regulated gene sets significantly down-regulated (GSEA) [5] | preservation of retinal gene expression pattern (in words) ([5]; retinas 1 day after light exposure) | retinal / photoreceptor morphology by OCT imaging ([1]; listed as TAM) | retinal / photoreceptor morphology by OCT imaging ([1]; listed as DOX) | half maximal effective (protective) dose ([1]; protection from bright light-induced degeneration, dose-response, FIG. 25A/B)
COCCc1ccc(OCC(O)CNC(C)C)cc1 (centres unmarked) [MTP, metoprolol tartrate] | Complete retinal protection | 25% of mice | 41.7% of mice | 25% | dose-dependent retinal protection | lacked these autofluorescent spots | no agonistic or antagonistic effects | no agonistic or antagonistic effects | no agonistic or antagonistic effects | no agonistic or antagonistic effects | 1.44 | 2.30 | 2.04 | 2.05 | 1.61 | 36 gene sets | conferred the most protection |  |  | 
CCOc1ccccc1OCCN[C@H](C)Cc1ccc(OC)c(S(N)(=O)=O)c1.Cl [Tamsulosin] | Complete retinal protection | 16.7% of mice | 58.3% of mice | 17% |  | significantly protected retinas from developing light-induced damage |  | partial antagonist |  | antagonistic activity | 1.39 | 2.29 | 1.98 | 1.83 | 1.60 | 32 gene sets |  | substantial protection on photoreceptor morphology; also recorded: dose-dependent retinal protection |  | 
COc1cc2nc(N3CCN(C(=O)C4COc5ccccc5O4)CC3)nc(N)c2cc1OC.CS(=O)(=O)O (centres unmarked) [Doxazosin] |  | 0% of mice | 100% of mice |  |  | significantly protected retinas from developing light-induced damage |  | partial antagonistic effect |  | full antagonist | 1.41 | 2.42 | 2.18 | 1.99 | 1.75 | 28 gene sets |  |  | substantial protection on photoreceptor morphology; also recorded: dose-dependent fashion | 0.4 mg/kg
